Measured values as given in PubChem BioAssay AID588468 (NMMLSC, 2011).
Activity calls are given as the source filed them.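 How the source made its calls: active means compounds whose thermal stabilization response of the kinase is above zero; inactive means the rest.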

These molecules were tested against Beta-adrenergic receptor kinase 1 (Homo sapiens) (UniProt P25098) (assay: ligand-induced GRK2 thermal stabilization – biophysical, Thermofluor, set 2, orthogonal assay for GRK2 aptamer-displacement inhibitor project, late-stage follow-up (AID 588468)). Settings: purified GRK2 thermal shift, ANS fluorescence; at 200 µM; active compounds read high.
Beta-adrenergic receptor kinase 1 (Homo sapiens), sequence (P25098 whole entry, looked up): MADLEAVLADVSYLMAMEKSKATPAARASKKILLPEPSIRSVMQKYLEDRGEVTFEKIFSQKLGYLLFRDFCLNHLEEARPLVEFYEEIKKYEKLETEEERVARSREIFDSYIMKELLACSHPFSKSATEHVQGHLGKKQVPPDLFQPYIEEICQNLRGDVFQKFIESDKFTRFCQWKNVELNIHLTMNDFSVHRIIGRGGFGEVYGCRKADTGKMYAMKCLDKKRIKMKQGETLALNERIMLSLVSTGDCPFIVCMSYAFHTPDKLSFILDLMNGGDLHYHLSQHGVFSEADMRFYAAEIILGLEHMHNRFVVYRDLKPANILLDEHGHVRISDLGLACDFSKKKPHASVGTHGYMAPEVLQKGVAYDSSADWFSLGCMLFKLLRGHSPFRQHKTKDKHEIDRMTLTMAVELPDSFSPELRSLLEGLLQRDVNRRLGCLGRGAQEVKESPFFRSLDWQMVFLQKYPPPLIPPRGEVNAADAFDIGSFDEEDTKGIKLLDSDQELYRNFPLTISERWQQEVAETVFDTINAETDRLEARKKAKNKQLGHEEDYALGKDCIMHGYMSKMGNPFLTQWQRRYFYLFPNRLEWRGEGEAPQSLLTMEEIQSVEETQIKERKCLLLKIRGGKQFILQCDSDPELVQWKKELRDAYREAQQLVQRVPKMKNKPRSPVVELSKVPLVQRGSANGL

| Compound | thermal stabilization response |
| --- | --- |
| COC(=O)c1ccc(NC(=O)CCS(=O)(=O)c2ccc(Br)cc2)cc1 | -62.8% (inactive) |
| O=C(O)Cc1ccc(-n2cccc2)cc1 | -127% (inactive) |
| COc1ccc(Cl)cc1NC(=O)CCS(=O)(=O)c1ccc(Br)cc1 | -601% (inactive) |
| CC(CS(=O)(=O)c1ccc2c(c1)NC(=O)CS2)C(=O)NCc1ccccc1Cl (stereo not drawn) | -20.4% (inactive) |
| O=C(CN1CCc2ccccc21)NC(=O)NCc1ccccc1 | 25.7% |
| COc1ccc(NC(=O)CCS(=O)(=O)c2ccc(Br)s2)cc1 | -93.6% (inactive) |
| COc1ccc(CCNC(=O)CCS(=O)(=O)c2ccc(Br)cc2)cc1OC | -74.6% (inactive) |
| CCOc1ccc(NC(=O)CCS(=O)(=O)c2ccc(Br)cc2)cc1 | -25.9% (inactive) |
| CCN(CC)c1ccc(NC(=O)CCS(=O)(=O)c2ccc(Br)cc2)c(C)c1 | 72% |
| O=C(CCS(=O)(=O)c1ccc(Br)cc1)Nc1ccc(Br)cc1F | -34.7% (inactive) |
| O=C(CSc1nc2ccccc2c(=O)n1-c1ccccc1)NC(=O)CN1CCCC1=O | -62% (inactive) |
| O=C(CCS(=O)(=O)c1ccc(Br)cc1)NCc1cccs1 | -152% (inactive) |
| CCOc1ccccc1NC(=O)CCS(=O)(=O)c1ccc(Br)cc1 | -16.1% (inactive) |
| O=C(CCS(=O)(=O)c1ccc(Br)s1)Nc1ccccc1Br | -73.1% (inactive) |
| CC(=O)N1CCN(Cc2nc3cc(Cl)ccc3c(=O)[nH]2)CC1 | -41.4% (inactive) |
| Cc1ccc(CCNC(=O)CCS(=O)(=O)c2ccc(Br)cc2)cc1 | 1.04% |
| Cc1cccc(CCNC(=O)CCS(=O)(=O)c2ccc(Br)cc2)c1 | 44.5% |
| Cc1ccccc1NC(=O)CCS(=O)(=O)c1ccc(Br)s1 | 116% |
| NS(=O)(=O)c1ccc(CCNC(=O)CCS(=O)(=O)c2ccc(Br)cc2)cc1 | -107% (inactive) |
| Cc1cc2ccccc2n1CCNC(=O)C(C)Oc1ccccc1 (stereo not drawn) | -116% (inactive) |
| C#CCSc1nc2sc3c(c2c(=O)n1C)CCC3 | 21.3% |
| COc1ccc([N+](=O)[O-])cc1NC(=O)CCS(=O)(=O)c1ccc(Br)cc1 | -85.1% (inactive) |
| COC(=O)c1ccccc1NC(=O)CCS(=O)(=O)c1ccc(Br)s1 | -184% (inactive) |
